Test results as given in US20110178053A1, “AZACARBOLINE DERIVATIVES, PREPARATION METHOD THEREOF AND THERAPEUTIC USE OF SAME” (SANOFI-AVENTIS, priority 2008, published 2011).

How the values were obtained:
PLK1 = PLK1 (Homo sapiens, UniProt P53350); experiment: PLK1 biochemical inhibition
Pim-3 = target: T1, Pim-3 (Homo sapiens, UniProt Q86V86); experiment: TR-FRET assay, Pim-3 kinase (phosphorylation of Bad Ser112); assay type: biochemical; details: TR-FRET; ATP 40 μM; read-out: IC50 Pim3
T1 construct: His6-labelled recombinant full-length human Pim-1, Pim-2 or Pim-3 protein; His6; made in house
In short: (§1)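 For each of Pim-1, Pim-2 and Pim-3 (His6-tagged full-length human), compounds were titrated over 10 concentrations in duplicate, typically from 30 μM, with ATP at 40 μM, equal to apparent KM. Bad Ser112 phosphorylation was read as the 665/615 nm TR-FRET ratio and IC50 fitted by 4-parameter logistic model.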

Pim-2 = target: T2, Pim-2 (Homo sapiens, UniProt Q9P1W9); experiment: TR-FRET assay, Pim-2 kinase (phosphorylation of Bad Ser112); assay type: biochemical; details: TR-FRET; ATP 40 μM; read-out: IC50 Pim2
T2 construct: His6-labelled recombinant full-length human Pim-1, Pim-2 or Pim-3 protein; His6; made in house
T2 sequence (Q9P1W9 whole entry): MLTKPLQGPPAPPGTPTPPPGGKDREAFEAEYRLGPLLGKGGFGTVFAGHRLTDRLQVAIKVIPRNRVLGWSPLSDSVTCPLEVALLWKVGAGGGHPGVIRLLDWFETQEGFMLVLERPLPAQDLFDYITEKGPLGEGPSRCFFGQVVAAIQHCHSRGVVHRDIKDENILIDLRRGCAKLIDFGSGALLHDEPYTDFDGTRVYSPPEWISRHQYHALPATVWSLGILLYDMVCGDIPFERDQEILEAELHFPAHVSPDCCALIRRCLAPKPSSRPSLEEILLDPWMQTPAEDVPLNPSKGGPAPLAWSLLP
In short: as §1

Pim-1 = target: T3, Pim-1 (Homo sapiens, UniProt P11309); experiment: TR-FRET assay, Pim-1 kinase (phosphorylation of Bad Ser112); assay type: biochemical; details: TR-FRET; ATP 40 μM; read-out: IC50 Pim1
T3 construct: His6-labelled recombinant full-length human Pim-1, Pim-2 or Pim-3 protein; His6; made in house
T3 sequence (P11309 whole entry): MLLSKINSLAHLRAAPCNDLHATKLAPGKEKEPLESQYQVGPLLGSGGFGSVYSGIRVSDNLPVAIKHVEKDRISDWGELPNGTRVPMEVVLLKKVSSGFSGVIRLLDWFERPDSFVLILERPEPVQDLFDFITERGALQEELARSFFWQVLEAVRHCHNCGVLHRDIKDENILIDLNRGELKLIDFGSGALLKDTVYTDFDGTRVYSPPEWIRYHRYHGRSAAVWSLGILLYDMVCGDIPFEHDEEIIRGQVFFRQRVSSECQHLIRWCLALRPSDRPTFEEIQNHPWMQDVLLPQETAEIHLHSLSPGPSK
In short: as §1

Chain of PLK1 (P53350 whole entry, species assumed): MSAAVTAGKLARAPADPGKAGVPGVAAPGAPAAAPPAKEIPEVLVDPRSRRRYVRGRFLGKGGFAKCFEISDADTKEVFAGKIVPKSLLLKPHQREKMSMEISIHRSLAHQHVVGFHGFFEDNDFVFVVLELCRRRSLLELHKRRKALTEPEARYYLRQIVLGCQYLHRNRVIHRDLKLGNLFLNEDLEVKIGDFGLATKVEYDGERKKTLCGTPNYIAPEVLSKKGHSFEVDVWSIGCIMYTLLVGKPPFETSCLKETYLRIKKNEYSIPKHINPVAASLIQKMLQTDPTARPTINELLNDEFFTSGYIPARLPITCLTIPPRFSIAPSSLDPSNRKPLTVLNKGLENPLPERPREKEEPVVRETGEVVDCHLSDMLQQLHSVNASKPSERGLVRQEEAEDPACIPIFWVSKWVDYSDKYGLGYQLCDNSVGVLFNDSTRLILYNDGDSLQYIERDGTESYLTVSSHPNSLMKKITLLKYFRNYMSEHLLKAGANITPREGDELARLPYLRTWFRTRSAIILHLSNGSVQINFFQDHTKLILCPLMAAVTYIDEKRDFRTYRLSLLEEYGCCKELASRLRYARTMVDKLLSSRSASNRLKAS

SMILES	IC50 (PLK1) [nM]	IC50 (Pim-3) [nM]	IC50 (Pim-2) [nM]	IC50 (Pim-1) [nM]
CCCN(C)C(=O)c1cnc2[nH]c3cnc(-c4cccnc4)cc3c2c1 [Example 6, N-methyl-N-propyl-6-(pyrid-3-yl)-9H-pyrrolo[2,3-b:5,4-c′]dipyridine-3-carboxamide]	> 5000	1000 to 5000	1000 to 5000	100 to 1000
Fc1cnc2[nH]c3cnc(-c4cccnc4)cc3c2c1C1CC1 [Example 32, 4-cyclopropyl-3-fluoro-6-(pyrid-3-yl)-9H-pyrrolo[2,3-b:5,4-c′]dipyridine]	1 to 100	1 to 100	1000 to 5000	1 to 100
O=C(c1ccccc1)c1c(F)cnc2[nH]c3cnc(-c4cccnc4)cc3c12 [Example 34, [3-fluoro-6-(pyrid-3-yl)-9H-pyrrolo[2,3-b:5,4-c′]-dipyrid-4-yl](phenyl)-methanone]	100 to 1000	1000 to 5000	> 5000	1 to 100
O=C(c1c(F)cnc2[nH]c3cnc(-c4cccnc4)cc3c12)N1CCOCC1 [Example 36, [3-fluoro-6-(pyrid-3-yl)-9H-pyrrolo[2,3-b:5,4-c′]-dipyrid-4-yl](morpholin-4-yl)methanone]	1000 to 5000	1000 to 5000	> 5000	100 to 1000
c1cnc2[nH]c3cnc(-c4ccoc4)cc3c2c1 [Example 40, 6-furan-3-yl-9H-pyrrolo[2,3-b:5,4-c′]dipyridine]	> 5000	1000 to 5000	> 5000	100 to 1000
O=S(=O)(CCl)Nc1ccc(-c2c(F)cnc3[nH]c4cnc(-c5cccnc5)cc4c23)cc1 [Example 45, 1-chloro-N-{4-[3-fluoro-6-(pyrid-3-yl)-9H-pyrrolo[2,3-b:5,4-c′]dipyrid-4-yl]-phenyl}-methanesulfonamide]	1 to 100	1 to 100	1000 to 5000	1 to 100
COc1cc(-c2c(F)cnc3[nH]c4cnc(-c5cccnc5)cc4c23)ccc1NS(C)(=O)=O [Example 47, N-{-4-[3-fluoro-6-(pyrid-3-yl)-9H-pyrrolo[2,3-b:5,4-c′]dipyrid-4-yl]-2-methoxyphenyl}-methanesulfonamide]	100 to 1000	1 to 100	1000 to 5000	1 to 100
CN(c1ccc(-c2c(F)cnc3[nH]c4cnc(-c5cccnc5)cc4c23)cc1)S(C)(=O)=O [Example 48, N-{-4-[3-fluoro-6-(pyrid-3-yl)-9H-pyrrolo[2,3-b:5,4-c′]dipyrid-4-yl]-phenyl}-N-methyl-methanesulfonamide]	100 to 1000	1 to 100	100 to 1000	1 to 100
CS(=O)(=O)NCc1cccc(-c2c(F)cnc3[nH]c4cnc(-c5cccnc5)cc4c23)c1 [Example 62, N-{3-[3-fluoro-6-(pyrid-3-yl)-9H-pyrrolo[2,3-b:5,4-c′]-dipyrid-4-yl]benzyl}-methanesulfonamide]	1 to 100	1 to 100	1000 to 5000	1 to 100
COc1ccccc1-c1c(F)cnc2[nH]c3cnc(-c4cccnc4)cc3c12 [Example 63, 3-fluoro-4-(2-methoxyphenyl)-6-(pyrid-3-yl)-9H-pyrrolo[2,3-b:5,4-c′]-dipyridine]	1 to 100	100 to 1000	> 5000	1 to 100
CS(=O)(=O)NCc1ccc(-c2c(F)cnc3[nH]c4cnc(-c5cccnc5)cc4c23)cc1 [Example 66, N-{4-[3-fluoro-6-(pyrid-3-yl)-9H-pynolo[2,3-b:5,4-c′]-dipyrid-4-yl]benzyl}-methanesulfonamide]	1 to 100	1 to 100	100 to 1000	1 to 100
CCCN(CCC)CCCN1CCN(c2c(F)cnc3[nH]c4cnc(-c5cccnc5)cc4c23)CC1 [Example 88, 3-{4-[3-fluoro-6-(pyrid-3-yl)-9H-pyrrolo[2,3-b:5,4-c′]dipyrid-4-yl]piperazin-1-yl}-N,N-dipropylpropan-1-amine]	1000 to 5000	1 to 100	100 to 1000	1 to 100
CCN(CC)CCCN1CCN(c2c(F)cnc3[nH]c4cnc(-c5cccnc5)cc4c23)CC1 [Example 89, N,N-diethyl-3-{4-[3-fluoro-6-(pyrid-3-yl)-9H-pyrrolo[2,3-b:5,4-c′]dipyrid-4-yl]piperazin-1-yl}propan-1-amine]	1000 to 5000	100 to 1000	1000 to 5000	1 to 100
Oc1ccc(-c2c(F)cnc3[nH]c4cnc(-c5cccnc5)cc4c23)cc1 [Example 95, 4-[3-fluoro-6-(pyrid-3-yl)-9H-pyrrolo[2,3-b:5,4-c′]dipyrid-4-yl]phenol]	1 to 100	100 to 1000	100 to 1000	1 to 100
Fc1cnc2[nH]c3cnc(-c4cccnc4)cc3c2c1-c1ccc(OCCN2CCOCC2)cc1 [Example 99, 3-fluoro-4-{4-[2-(morpholin-4-yl)ethoxy]phenyl}-6-(pyrid-3-yl)-9H-pyrrolo[2,3-b:5,4-c′]dipyridine]	100 to 1000	100 to 1000	1000 to 5000	1 to 100
OC(COc1ccc(-c2c(F)cnc3[nH]c4cnc(-c5cccnc5)cc4c23)cc1)CN1CCOCC1 (centres unmarked) [Example 101, 1-{4-[3-fluoro-6-(pyrid-3-yl)-9H-pyrrolo[2,3-b:5,4-c′]dipyrid-4-yl]phenoxy}-3-(morpholin-4-yl)propan-2-ol]	1 to 100	1 to 100	100 to 1000	1 to 100
CCCNc1cnc2[nH]c3cnc(-c4cccnc4)cc3c2c1 [Example 110, N-propyl-6-(pyrid-3-yl)-9H-pyrrolo[2,3-b:5,4-c′]dipyrid-3-amine]	1000 to 5000	100 to 1000	1000 to 5000	1 to 100
CCOc1cnc2[nH]c3cnc(-c4cccnc4)cc3c2c1 [Example 112, 3-ethoxy-6-(pyrid-3-yl)-9H-pyrrolo[2,3-b:5,4-c′]dipyridine]	100 to 1000	1 to 100	100 to 1000	1 to 100
COCCOc1cnc2[nH]c3cnc(-c4cccnc4)cc3c2c1 [Example 113, 3-(2-methoxyethoxy)-6-(pyrid-3-yl)-9H-pyrrolo[2,3-b:5,4-c′]dipyridine]	1000 to 5000	1 to 100	1000 to 5000	1 to 100
c1cncc(-c2cc3c(cn2)[nH]c2ncc(-c4cnn(CCN5CCOCC5)c4)cc23)c1 [Example 115, 3-{1-[2-(morpholin-4-yl)ethyl]-1H-pyrazol-4-yl}-6-(pyrid-3-yl)-9H-pyrrolo[2,3-b:5,4-c′]dipyridine]	1000 to 5000	1 to 100	1000 to 5000	1 to 100
Cn1ccc(-c2cnc3[nH]c4cnc(-c5cccnc5)cc4c3c2)n1 [Example 116, 3-(1-methyl-1H-pyrazol-3-yl)-6-(pyrid-3-yl)-9H-pyrrolo[2,3-b:5,4-c′]dipyridine]	1000 to 5000	1 to 100	> 5000	1 to 100
OCc1cccc(-c2cnc3[nH]c4cnc(-c5cccnc5)cc4c3c2)c1 [Example 118, {3-[6-(pyrid-3-yl)-9H-pyrrolo-[2,3-b:5,4-c′]-dipyrid-3-yl]-phenyl}methanol]	100 to 1000	1 to 100	100 to 1000	1 to 100
c1cncc(-c2cc3c(cn2)[nH]c2ncc(-c4ccc(N5CCOCC5)cc4)cc23)c1 [Example 121, 3-[4-(morpholin-4-yl)phenyl]-6-(pyrid-3-yl)-9H-pyrrolo[2,3-b:5,4-c′]-dipyridine]	1000 to 5000	1 to 100	1000 to 5000	1 to 100
CN1CCN(CCCn2cc(-c3cnc4[nH]c5cnc(-c6cccnc6)cc5c4c3)cn2)CC1 [Example 124, 3-{1-[3-(4-methyl-piperazin-1-yl)propyl]-1H-pyrazol-4-yl}-6-(pyrid-3-yl)-9H-pyrrolo[2,3-b:5,4-c′]-dipyridine]	100 to 1000	1 to 100	100 to 1000	1 to 100
CCN(CC)CCn1nc(C)c(-c2cnc3[nH]c4cnc(-c5cccnc5)cc4c3c2)c1C [Example 125, 2-{3,5-dimethyl-4-[6-(pyrid-3-yl)-9H-pyrrolo[2,3-b:5,4-c′]dipyrid-3-yl]-1H-pyrazol-1-yl}-N,N-diethyl-ethanamine]	1000 to 5000	1 to 100	–	1 to 100
c1cncc(-c2cc3c(cn2)[nH]c2ncc(-c4cn[nH]c4)cc23)c1 [Example 126, 3-(1H-pyrazol-4-yl)-6-(pyrid-3-yl)-9H-pyrrolo-[2,3-b:5,4-c′]-dipyridine]	1000 to 5000	100 to 1000	> 5000	1 to 100
Fc1cnc2[nH]c3cnc(-c4ccsc4)cc3c2c1 [Example 162, 3-fluoro-6-(thiophen-3-yl)-9H-pyrrolo[2,3-b:5,4-c′]dipyridine]	1000 to 5000	> 5000	–	> 5000
COc1cnc2[nH]c3cnc(-c4cnn(CC(=O)NCCN(C)C)c4)cc3c2c1 [Example 165, N-[2-(dimethylamino)ethyl]-2-[4-(3-methoxy-9H-pyrrolo[2,3-b:5,4-c′]dipyrid-6-yl)-1H-pyrazol-1-yl]acetamide]	> 5000	100 to 1000	> 5000	100 to 1000
O=C(O)c1cc2c(cn1)[nH]c1ncccc12 [Example 172, 9H-pyrrolo[2,3-b:5,4-c′]dipyridine-6-carboxylic acid]	> 5000	–	> 5000	> 5000
